Consider one compound from patent US20050124493A1, “Herbicidal composition” (priority 2002, published 2005).

In the test the test system is wheat and barley. Description: Post-emergence greenhouse test of herbicide mixture with safener (Example B1). It counts as in vivo. Conditions: greenhouse pots, mixture of MCPA, bromoxynil and herbicide H1 or H2, alone vs. with safener (admixture or seed dressing), evaluated after 9, 10, 20 and 24 days, 100% action=plant completely dead, 0%=no phytotoxic action. From the text: Examples B1: Post-emergence applications of mixtures of MCPA, bromoxynil and the herbicide of formula I wherein R1 and R3 are —C2H5; R4 and R5 together form a group —CR14(R15)—CR16(R17)—O—CR18(R19)—CR20(R21)— wherein R14, R15 R16, R17, R18, R19, R20 and R21 are hydrogen; and G is either hydrogen (=herbicide H1) or (CH3)3CC(O)— (=herbicide H2), with the safener of formula II wherein Rs1 is chlorine and Rs2 is 1-methylhexyl, in wheat and barley, and together with 3 different weeds.
The test plants are grown to a post-application stage in pots under greenhouse conditions. A standard soil is used as cultivation substrate. At a post-emergence stage, the herbicides, both on their own and in admixture with the safener, are applied to the test plants or to cultivated plants seed-dressed with safener. The application is carried out using an emulsion (prepared from a 25% emulsifiable concentrate (Example F1, b)) of the test substances using 500 litres of water per ha. The rates of application depend on the optimum concentrations ascertained under field conditions and greenhouse conditions. The tests are evaluated after 9, 10, 20 and 24 days (100% action=plant is completely dead, 0% action=no phytotoxic action).

With `CCCCCC(C)OC(=O)COc1ccc(Cl)c2cccnc12` (stereo not shown) [safener], the “damage caused to the cultivated plants by the herbicide mixture (phytotoxic action)” value was “significantly reduce the damage”.
